Read-outs that look alike come from different tables or passages of the source. Marks after values point to notes of the source that are not given here.
How the values were obtained:
[1] = Solubility in water; assay type: physicochemical; details: in presence of air, 25 °C
[2] = test system: A2780 ovarian cancer cells; assay: MTT cytotoxicity assay, A2780; assay type: cell-based, human; details: A2780, 72 h, mean ± SD n = 3
Experimental: (§1) The cytotoxic activity of all complexes was screened against A2780 (ovarian, Sigma-Aldrich, Lisboa, Portugal), MDAMB231 (breast, triple negative, ATCC), and HT29 (colon, ATCC) human cancer cells. Cells were grown in RPMI 1640 (A2780) or DMEM containing GlutaMax-I (MDAMB231), or McCoy’s (HT29) supplemented with 10% FBS and 1% penicillin/streptomycin (Invitrogen, Lisboa, Portugal). All cell lines were kept in a CO2 incubator (Heraeus, Hanau, Germany) with 5% CO2 at 37 °C in a humidified atmosphere. Cell viability was measured using the colorimetric MTT (3-(4,5-dimethylthiazol-2-yl)-2,5-diphenyltetrazolium bromide) assay. For the assays, cells were seeded in 200 μL of complete medium in 96-well plates and incubated at 37 °C for 24 h prior to complex treatment to allow cell adherence. The stock solutions in water (20 mM) of the complexes were freshly prepared and used for sequential dilutions in medium within the concentration range of 10^−10–10^−4 M. Cisplatin was also included in this study as a positive control. After careful removal of the medium, […] of a serial dilution of compounds in fresh medium was added to the cells, and incubation was carried out for 72 h at 37 °C. At the end of the treatment, the medium was discarded, and the cells were incubated with […] of an MTT solution in PBS (0.5 mg mL^−1). After 3 h incubation, medium was removed, and DMSO was added to solubilize the purple formazan crystals formed. The absorbance at 570 nm was measured using a plate spectrophotometer (Power Wave Xs, Bio-Tek, Winooski, VT, USA). Each experiment was repeated at least three times and each concentration tested in at least six replicates. The IC50 values were calculated from dose–response curves analyzed with the GraphPad Prism software (version 5.0).

[3] = test system: MDAMB231 triple-negative breast cancer cells; assay: MTT cytotoxicity assay, MDAMB231; assay type: cell-based, human; details: MDAMB231, 72 h; for IC50: mean ± SD n = 3
Experimental: as §1

[4] = Stability in water in presence of air (UV-vis, 1H and 31P NMR); assay type: physicochemical; details: for Stability in water, Time (Days) / Stability in water, Time: in presence of air, 25 °C, time without hydrolysis
Experimental: The stability of all the complexes in water was evaluated by ^31P NMR and UV–visible spectroscopies. Generally, a 5 mm NMR tube was charged in the air with the 10 mg of each complex and D2O (0.8 mL). ^1H NMR and ^31P NMR were monitored for four days to evaluate if there was any decomposition product. Decomposition/instability of the compound can be assessed by the disappearance of the NMR signals and/or by the appearance of new signals that could not be assigned to the known complex, beyond the appearance of free mTPPMS phosphine signals. Any eventual changes in the charge transfer bands between ruthenium and ligands were followed by UV–visible in the 300–900 nm range.

[5] = test system: HT29 colon cancer cells; assay: MTT cytotoxicity assay, HT29; assay type: cell-based, human; details: HT29, 72 h; for IC50: mean ± SD n = 3
Experimental: as §1

[6] = test system: MDAMB231 triple-negative breast cancer cells; set-up: method as in PMID 21450266, PMID 20200702, PMID 20422091; details: MDAMB231, 72 h; cited from earlier work
[7] = test system: HT29 colon cancer cells; set-up: method as in PMID 21450266, PMID 20200702, PMID 20422091; details: HT29, 72 h; cited from earlier work
[8] = test system: A2780 ovarian cancer cells; set-up: method as in PMID 21450266, PMID 20200702, PMID 20422091; details: A2780, 72 h; cited from earlier work
[9] = n-Octanol/water partition coefficient, shake-flask method; assay type: physicochemical; details: room temperature
Experimental: The lipophilicity of the complexes was measured by the shake-flask method. Distilled water and n-octanol were mixed vigorously for 24 h at 25 °C, to promote solvent saturation in both phases, before the experiments. […] Aliquots of stock solutions were equilibrated with octanol for 4 h in a mechanical shaker. The phase ratio was 2 mL/2 mL (water/n-octanol). The aqueous and octanol layers were carefully separated (by centrifugation at 5000 rpm for 10 min), and UV–vis absorption spectra of the compounds were registered in both phases. The concentration for each sample was determined using the calibration curve. Triplicate experiments have been performed for each complex and the averages were calculated.

[RuCp(mTPPMSNa)(pbt)][CF3SO3] [Compound 8]
S(H2O) [1]: 20.0 mg/mL | S(H2O) ([1]; value in brackets): 0.02 M | IC50 [2]: 0.2 ± 0.08 µM | IC50 [3]: 25.4 ± 5 µM | Stability in water by NMR (in words) ([4]; D2O, 4 days, UV–vis bands decrease due to precipitation): remained intact without the formation of new species | Stability in water, Time (Days) [4]: >4 ^[b,c] Days | IC50 [5]: 11.3 ± 2.4 µM

COc1ccc(-n2ccnc2)cc1.O=S(=O)([O-])C(F)(F)F.O=S(=O)([O-])c1cccc(P(c2ccccc2)c2ccccc2)c1.O=S(=O)([O-])c1cccc(P(c2ccccc2)c2ccccc2)c1.[Na+].[Na+].[Ru+2].c1cc[cH-]c1 [Compound 5, [RuCp(mTPPMSNa)2(4-MpIm)][CF3SO3]]
S(H2O) [1]: 28.8 mg/mL | S(H2O) ([1]; value in brackets): 0.029 M | Stability in water, Time [4]: 0.12 days

N.N.[Cl][Pt][Cl] [CisPt, Cisplatin]
IC50 [6]: 39 ± 5 µM | IC50 [7]: 7 ± 2 µM | IC50 [8]: 1.9 ± 0.1 µM

[RuCp(mTPPMSNa)2(1-BuIm)][CF3SO3] [Compound 3]
S(H2O) [1]: 42.8 mg/mL | S(H2O) ([1]; value in brackets): 0.043 M | Stability in water, Time [4]: 0.12 days

[RuCp(mTPPMSNa)(dpk)][CF3SO3] [Compound 7]
S(H2O) [1]: 19.3 mg/mL | S(H2O) ([1]; value in brackets): 0.019 M | IC50 [2]: 0.45 ± 0.3 µM | Log Po/w [9]: 5.95 ± 0.07 | Cytotoxicity (in words) [3]: not cytotoxic | IC50 [3]: > 100 µM | Changes in the UV–vis spectra in aqueous solution ([4]; over 4 days at 37 °C): insignificant | Stability in water, Time (Days) [4]: >4 ^[b] Days | Cytotoxicity (in words) [5]: not cytotoxic | IC50 [5]: > 100 µM

NCCCn1ccnc1.O=S(=O)([O-])C(F)(F)F.O=S(=O)([O-])c1cccc(P(c2ccccc2)c2ccccc2)c1.O=S(=O)([O-])c1cccc(P(c2ccccc2)c2ccccc2)c1.[Na+].[Na+].[Ru+2].c1cc[cH-]c1 [Compound 4, [RuCp(mTPPMSNa)2(3-ApIm)][CF3SO3]]
S(H2O) [1]: 48.6 mg/mL | S(H2O) ([1]; value in brackets): 0.049 M | Log Po/w [9]: 4.43 ± 0.03 | Time stable in water ([4]; aqueous solution): 24 h | Stability in water, Time [4]: 1 days

O=S(=O)([O-])C(F)(F)F.O=S(=O)([O-])c1cccc(P(c2ccccc2)c2ccccc2)c1.O=S(=O)([O-])c1cccc(P(c2ccccc2)c2ccccc2)c1.[Na+].[Na+].[Ru+2].c1c[nH]cn1.c1cc[cH-]c1 [Compound 1, [RuCp(mTPPMSNa)2(ImH)][CF3SO3]]
S(H2O) [1]: 21.4 mg/mL

[RuCp(mTPPMSNa)2(1-BI)][CF3SO3] [Compound 2]
S(H2O) [1]: 38.6 mg/mL | S(H2O) ([1]; value in brackets): 0.039 M | Stability in water, Time [4]: 0.25 days
